The values that follow come from the PolyMetriX glass transition set.

The compound `*C(=O)Nc1ccc(Oc2ccc(NC(=O)c3ccc4c(c3)C(=O)N(C3CCC(CC5CCC(N6C(=O)c7ccc(*)cc7C6=O)CC5)CC3)C4=O)cc2)cc1` (repeat unit) had a glass transition temperature of 250.00 °C.
The compound `*C(=O)Nc1ccc(Oc2ccc(NC(=O)c3ccc4c(c3)C(=O)N(c3ccc(Oc5ccc(C6(c7ccc(Oc8ccc(N9C(=O)c%10ccc(*)cc%10C9=O)cc8)cc7)NC(=O)c7ccccc76)cc5)cc3)C4=O)cc2)cc1` (repeat unit) yielded a glass transition temperature of 325.00 °C.
On to `*C(=O)Nc1ccc(Oc2ccc(NC(=O)c3ccc4c(c3)C(=O)N(c3ccc(Oc5cccc6c(N7C(=O)c8ccc(*)cc8C7=O)cccc56)cc3)C4=O)cc2)cc1` (repeat unit), for which the glass transition temperature was 278.00 °C.
Compound `*C(=O)Nc1ccc(Oc2ccc(NC(=O)c3ccc4c(c3)C(=O)N(c3cccc(P(=O)(c5ccccc5)c5cccc(N6C(=O)c7ccc(*)cc7C6=O)c5)c3)C4=O)cc2)cc1` (repeat unit) returned a glass transition temperature of 235.00 °C.
Under `*C(=O)Nc1ccc(Oc2ccc(Oc3ccc(NC(=O)c4ccc5c(c4)C(=O)N(c4ccc(Oc6ccc(C7(c8ccc(Oc9ccc(N%10C(=O)c%11ccc(*)cc%11C%10=O)cc9)cc8)NC(=O)c8ccccc87)cc6)cc4)C5=O)cc3)cc2)cc1` (repeat unit) stands 300.00 °C; under `*C(=O)Nc1ccc(Oc2ccc(Oc3ccc(NC(=O)c4ccc5c(c4)C(=O)N(c4ccc(S(=O)(=O)c6ccc(N7C(=O)c8ccc(*)cc8C7=O)cc6)cc4)C5=O)cc3)cc2)cc1` (repeat unit), 243.00 °C; under `*C(=O)Nc1ccc(Oc2ccc(S(=O)(=O)c3ccc(Oc4ccc(NC(=O)c5ccc6c(c5)C(=O)N(c5ccc(Oc7ccc(C8(c9ccc(Oc%10ccc(N%11C(=O)c%12ccc(*)cc%12C%11=O)cc%10)cc9)NC(=O)c9ccccc98)cc7)cc5)C6=O)cc4)cc3)cc2)cc1` (repeat unit), 302.00 °C.
For `*C(=O)c1ccc2c(c1)C(=O)N(c1ccc(Oc3ccc(C(=O)c4ccc(C(=O)c5ccc(Oc6ccc(N7C(=O)c8ccc(*)cc8C7=O)cc6)cc5)cc4)cc3)cc1)C2=O` (repeat unit), the glass transition temperature was found to be 233.00 °C.
Compound `*Cc1ccc2oc(=O)c(C(=O)Nc3ccc(Oc4ccc(NC(=O)c5cc6cc(*)ccc6oc5=O)cc4)cc3)cc2c1` (repeat unit) yielded a glass transition temperature of 312.00 °C.
`*Cc1ccc2oc(=O)c(C(=O)Nc3ccc(Oc4ccc(Oc5ccc(NC(=O)c6cc7cc(*)ccc7oc6=O)cc5)cc4)cc3)cc2c1` (repeat unit): the glass transition temperature came to 290.00 °C.
`*Nc1ccc(Oc2ccc(Nc3ccc4c(c3)c3cc(*)ccc3n4CC(CC)CCCC)cc2)cc1` (repeat unit) displayed a glass transition temperature of 220.00 °C.
For the compound `*Oc1ccc(C2(c3ccc(Oc4ccc(C(=O)c5ccc(C(=O)c6ccc(*)cc6)cc5)cc4)cc3)c3ccccc3-c3ccccc32)cc1` (repeat unit), the glass transition temperature came out at 243.00 °C.
`*Oc1ccc(NC(=C(C#N)C#N)c2cccc(C(Nc3ccc(Oc4ccc(NC(=O)c5ccc(C(=O)Nc6ccc(*)cc6)cc5)cc4)cc3)=C(C#N)C#N)c2)cc1` (repeat unit) returned a glass transition temperature of 274.00 °C.
As to `*Oc1ccc(NC(=O)c2ccc(Oc3ccc(C(=O)Nc4ccc(*)cc4)cc3)cc2)cc1` (repeat unit), the glass transition temperature was 274.00 °C.
Under `*Oc1ccc(Nc2ccc(/N=N/c3ccc(Nc4ccc(*)cc4)cc3)cc2)cc1` (repeat unit) stands 169.00 °C.
Under `*Oc1ccc(Oc2ccc(C(=O)Nc3ccc(Oc4ccc(NC(=O)c5ccc(*)cc5)cc4)cc3)cc2)cc1-c1ccccc1` (repeat unit) stands 219.00 °C.
On to `*Oc1ccc(Oc2ccc(C(=O)Nc3ccc(Oc4ccc(S(=O)(=O)c5ccc(Oc6ccc(NC(=O)c7ccc(*)cc7)cc6)cc5)cc4)cc3)cc2)cc1-c1ccccc1` (repeat unit), for which the glass transition temperature is 231.00 °C.
Consider `*Oc1ccc(Oc2ccc(C(=O)c3ccc(C(=O)c4ccc(*)cc4)c4ccccc34)cc2)cc1` (repeat unit), for which the glass transition temperature is 200.03 °C.
As for `*Oc1ccc(Oc2ccc(C(=O)c3ccc(C(=O)c4ccc(*)cc4)cc3)cc2)cc1-c1ccc(Cl)c(C(F)(F)F)c1` (repeat unit), the glass transition temperature was determined as 147.00 °C.
Under `*Oc1ccc(Oc2ccc(NC(=C(C#N)C#N)c3cccc(C(Nc4ccc(*)cc4)=C(C#N)C#N)c3)cc2)cc1` (repeat unit) stands 228.00 °C; under `*Oc1ccc(Oc2ccc(NC(=O)c3ccc(Oc4ccc(Oc5ccc(C(=O)Nc6ccc(*)cc6)cc5)cc4)cc3)cc2)cc1` (repeat unit), 236.00 °C.
Regarding `*Oc1ccc2ccc(Oc3ccc(C(=O)Nc4ccc(Oc5ccc(Oc6ccc(NC(=O)c7ccc(*)cc7)cc6)cc5)cc4)cc3)cc2c1` (repeat unit), the glass transition temperature came to 191.00 °C.
In the case of `*Oc1ccc2ccc(Oc3ccc(C(=O)Nc4ccc(Oc5ccc(S(=O)(=O)c6ccc(Oc7ccc(NC(=O)c8ccc(*)cc8)cc7)cc6)cc5)cc4)cc3)cc2c1` (repeat unit), the glass transition temperature was found to be 227.00 °C.
`*Oc1ccc2ccc(Oc3ccc(C(=O)Nc4cccc(Oc5ccc(NC(=O)c6ccc(*)cc6)cc5)c4)cc3)cc2c1` (repeat unit): the glass transition temperature was determined as 164.00 °C.
Compound `*Oc1cccc(NC(=O)c2ccc(C(=O)Nc3ccc(*)cc3)cc2)c1` (repeat unit) came in with a glass transition temperature of 280.00 °C.
`*Oc1cccc2ccc(Oc3ccc(NC(=O)c4ccc(Oc5ccc(Oc6ccc(C(=O)Nc7ccc(*)cc7)cc6)cc5)cc4)cc3)cc12` (repeat unit) showed a glass transition temperature of 224.00 °C.
`*Oc1cccc2ccc(Oc3ccc(NC(=O)c4ccc(Oc5ccc(S(=O)(=O)c6ccc(Oc7ccc(C(=O)Nc8ccc(*)cc8)cc7)cc6)cc5)cc4)cc3)cc12` (repeat unit): the glass transition temperature amounted to 218.00 °C.
Under `*Oc1cccc2ccc(Oc3ccc(NC(=O)c4ccc(Oc5cccc(Oc6ccc(C(=O)Nc7ccc(*)cc7)cc6)c5)cc4)cc3)cc12` (repeat unit) stands 196.00 °C.
In turn, `*Oc1cccc2ccc(Oc3ccc(NC(=O)c4ccc(Oc5ccccc5Oc5ccc(C(=O)Nc6ccc(*)cc6)cc5)cc4)cc3)cc12` (repeat unit) came in with a glass transition temperature of 180.00 °C.
On to `*c1ccc(-c2nc3cc(Oc4ccc(NC(=O)c5cc(C(=O)Nc6ccc(Oc7ccc8nc(-c9ccccc9)c(*)nc8c7)cc6)cc(N6C(=O)c7ccccc7C6=O)c5)cc4)ccc3nc2-c2ccccc2)cc1` (repeat unit), for which the glass transition temperature is 302.00 °C.
For the compound `*c1ccc(-c2nc3cc(Oc4ccc(NC(=O)c5cc(C(=O)Nc6ccc(Oc7ccc8nc(-c9ccccc9)c(-c9ccc(N%10C(=O)c%11ccc%12c%13c(ccc(c%11%13)C%10=O)C(=O)N(*)C%12=O)cc9)nc8c7)cc6)cc(N6C(=O)c7c(Cl)c(Cl)c(Cl)c(Cl)c7C6=O)c5)cc4)ccc3nc2-c2ccccc2)cc1` (repeat unit), the glass transition temperature amounted to 345.00 °C.
Compound `*c1ccc(-c2nc3cc(Oc4ccc(NC(=O)c5cc(C(=O)Nc6ccc(Oc7ccc8nc(-c9ccccc9)c(-c9ccc(N%10C(=O)c%11ccc%12c%13c(ccc(c%11%13)C%10=O)C(=O)N(*)C%12=O)cc9)nc8c7)cc6)cc(N6C(=O)c7ccccc7C6=O)c5)cc4)ccc3nc2-c2ccccc2)cc1` (repeat unit) returned a glass transition temperature of 345.00 °C.
`*c1ccc(C(=O)Nc2ccc(Oc3ccc(NC(=O)c4ccc(-n5c(=O)c6cc7c(=O)n(*)c(=O)c7cc6c5=O)cc4)cc3)cc2)cc1` (repeat unit) gave a glass transition temperature of 360.00 °C.
`*c1ccc(C(=O)Nc2ccc(Oc3ccc(NC(=O)c4ccc(Oc5ccc(-c6nn(*)c(=O)c7ccccc67)cc5)cc4)cc3)cc2)cc1` (repeat unit) displayed a glass transition temperature of 280.00 °C.
Under `*c1ccc(C(=O)Nc2ccc(Oc3ccc(S(=O)(=O)c4ccc(Oc5ccc(NC(=O)c6ccc(N7C(=O)c8ccc(-c9ccc%10c(c9)C(=O)N(*)C%10=O)cc8C7=O)cc6)cc5)cc4)cc3)cc2)cc1` (repeat unit) stands 258.00 °C; under `*c1ccc(Oc2ccc(-c3nc4cc(Oc5ccc(NC(=O)c6cc(C(=O)Nc7ccc(Oc8ccc9nc(-c%10ccc([N+](=O)[O-])cc%10)c(*)nc9c8)cc7)cc(N7C(=O)c8ccccc8C7=O)c6)cc5)ccc4nc3-c3ccc([N+](=O)[O-])cc3)cc2)cc1` (repeat unit), 305.00 °C; under `*c1ccc(Oc2ccc(-c3nc4cc(Oc5ccc(NC(=O)c6ccc7c(c6)C(=O)N(c6ccc(C(c8ccc(N9C(=O)c%10ccc(C(=O)Nc%11ccc(Oc%12ccc%13nc(-c%14ccc([N+](=O)[O-])cc%14)c(*)nc%13c%12)cc%11)cc%10C9=O)cc8)(C(F)(F)F)C(F)(F)F)cc6)C7=O)cc5)ccc4nc3-c3ccc([N+](=O)[O-])cc3)cc2)cc1` (repeat unit), 303.00 °C.
`*c1ccc(Oc2ccc(-c3nc4cc(Oc5ccc(NC(=O)c6ccc7c(c6)C(=O)N(c6ccc(C(c8ccc(N9C(=O)c%10ccc(C(=O)Nc%11ccc(Oc%12ccc%13nc(-c%14ccccc%14)c(*)nc%13c%12)cc%11)cc%10C9=O)cc8)(C(F)(F)F)C(F)(F)F)cc6)C7=O)cc5)ccc4nc3-c3ccccc3)cc2)cc1` (repeat unit): the glass transition temperature stood at 289.00 °C.
For the compound `*c1ccc(Oc2ccc3ccccc3c2-c2c(Oc3ccc(N4C(=O)c5ccc(NC(=O)Nc6ccc(Oc7ccc(NC(=O)Nc8ccc9c(c8)C(=O)N(*)C9=O)cc7)cc6)cc5C4=O)cc3)ccc3ccccc23)cc1` (repeat unit), the glass transition temperature was 274.00 °C.
With `*c1ccc2c(c1)C(=O)N(c1ccc(C(=O)Nc3ccc(Oc4ccc(Oc5ccc(NC(=O)c6ccc(N7C(=O)c8ccc(C(*)(C(F)(F)F)C(F)(F)F)cc8C7=O)cc6)cc5)cc4)cc3)cc1)C2=O` (repeat unit), the glass transition temperature was 303.00 °C.
For `*c1cccc(C(=O)Nc2ccc(Oc3ccc(NC(=O)c4cccc(N5C(=O)c6ccc(-c7cccc8c7C(=O)N(*)C8=O)cc6C5=O)c4)cc3)cc2)c1` (repeat unit) the value was 291.00 °C; for `*c1cccc(C(=O)Nc2ccc(Oc3ccc(Oc4ccc(Oc5ccc(NC(=O)c6cccc(N7C(=O)c8ccc(-c9cccc%10c9C(=O)N(*)C%10=O)cc8C7=O)c6)cc5)cc4)cc3)cc2)c1` (repeat unit), 260.00 °C.
